From PubChem BioAssay (NCI) come the findings set out here.

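All cell lines were grown in 96-well plates and treated with compound for 48 hours. At the TGI there is no net growth.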

A word on the TGI: it is the concentration giving total growth inhibition.

In one assay the test system is NCI-H226 lung. Nature of the assay: DTP human tumour cell line panel, 48 h.
`C=CCN1C(=O)/C(=C/c2ccco2)N=C1SC/C=C/C` displayed a TGI of over 100 µM.
Same read-out and setting: as for `Clc1ccc(C2SCc3nc4ccccc4n32)c(Cl)c1` (centres undefined), the figure is 30.4 µM.

In another assay the test system is NCI-H23 lung. Nature of the assay: DTP human tumour cell line panel, 48 h.
`CCOc1ccc2c(c1)[n+]([O-])c(-c1ccc(Cl)cc1)c(N)[n+]2[O-]` had a concentration for total growth inhibition (TGI) of over 100 µM.
Same read-out and setting: as for `C=CCN1C(=O)/C(=C/c2ccco2)N=C1SC/C=C/C`, the figure is over 100 µM.
With `CN(C)CC/C(=N\Nc1ccc([N+](=O)[O-])cc1)c1ccccc1`, the TGI stood at 27.1 µM.
The same measure, in the same setting: as for `Clc1ccc(C2SCc3nc4ccccc4n32)c(Cl)c1` (centres undefined), the figure is 25.1 µM.

Another assay has as its system NCI-H460 lung. Nature of the assay: DTP human tumour cell line panel, 48 h.
The compound `CCOc1ccc2c(c1)[n+]([O-])c(-c1ccc(Cl)cc1)c(N)[n+]2[O-]` showed a concentration for total growth inhibition (TGI) of over 100 µM.
For `C=CCN1C(=O)/C(=C/c2ccco2)N=C1SC/C=C/C`, the concentration for total growth inhibition (TGI) was over 100 µM.
The same measure, in the same setting: to `CN(C)CC/C(=N\Nc1ccc([N+](=O)[O-])cc1)c1ccccc1` belongs 21.3 µM; to `Clc1ccc(C2SCc3nc4ccccc4n32)c(Cl)c1` (centres undefined), 34.7 µM.

A further assay relates to NCI-H522 lung. Nature of the assay: DTP human tumour cell line panel, 48 h.
Regarding `CCOc1ccc2c(c1)[n+]([O-])c(-c1ccc(Cl)cc1)c(N)[n+]2[O-]`, the TGI was over 100 µM.
On the same count and under the same terms, to `C=CCN1C(=O)/C(=C/c2ccco2)N=C1SC/C=C/C` belongs over 100 µM; to `CN(C)CC/C(=N\Nc1ccc([N+](=O)[O-])cc1)c1ccccc1`, 29.1 µM.
On the same count and under the same terms, as for `Clc1ccc(C2SCc3nc4ccccc4n32)c(Cl)c1` (centres undefined), the figure is 29.9 µM.

The subject of the next assay is NCI/ADR-RES ovarian. Nature of the assay: DTP human tumour cell line panel, 48 h.
For the compound `C=CCN1C(=O)/C(=C/c2ccco2)N=C1SC/C=C/C`, the TGI is over 100 µM.

The test system of a further assay is OVCAR-3 ovarian. Nature of the assay: DTP human tumour cell line panel, 48 h.
The compound `CCOc1ccc2c(c1)[n+]([O-])c(-c1ccc(Cl)cc1)c(N)[n+]2[O-]` registered a concentration for total growth inhibition (TGI) of over 100 µM.
The same measure, in the same setting: to `C=CCN1C(=O)/C(=C/c2ccco2)N=C1SC/C=C/C` belongs over 100 µM.
Same read-out and setting: to `CN(C)CC/C(=N\Nc1ccc([N+](=O)[O-])cc1)c1ccccc1` belongs 31.2 µM.
On the same count and under the same terms, as for `Clc1ccc(C2SCc3nc4ccccc4n32)c(Cl)c1` (centres undefined), the figure is 27.3 µM.

Another assay concerns OVCAR-4 ovarian. Nature of the assay: DTP human tumour cell line panel, 48 h.
`CCOc1ccc2c(c1)[n+]([O-])c(-c1ccc(Cl)cc1)c(N)[n+]2[O-]` yielded a total growth inhibition concentration (TGI) of over 100 µM.
Same read-out and setting: as for `C=CCN1C(=O)/C(=C/c2ccco2)N=C1SC/C=C/C`, the figure is over 100 µM; as for `CN(C)CC/C(=N\Nc1ccc([N+](=O)[O-])cc1)c1ccccc1`, 37.2 µM.

In the next assay the test system is OVCAR-5 ovarian. Nature of the assay: DTP human tumour cell line panel, 48 h.
Consider `CCOc1ccc2c(c1)[n+]([O-])c(-c1ccc(Cl)cc1)c(N)[n+]2[O-]`, for which the TGI is over 100 µM.
Same read-out and setting: to `C=CCN1C(=O)/C(=C/c2ccco2)N=C1SC/C=C/C` belongs over 100 µM.
The same measure, in the same setting: to `CN(C)CC/C(=N\Nc1ccc([N+](=O)[O-])cc1)c1ccccc1` belongs 28.2 µM; to `Clc1ccc(C2SCc3nc4ccccc4n32)c(Cl)c1` (centres undefined), 30.3 µM.

The next assay concerns OVCAR-8 ovarian. Nature of the assay: DTP human tumour cell line panel, 48 h.
Regarding `CCOc1ccc2c(c1)[n+]([O-])c(-c1ccc(Cl)cc1)c(N)[n+]2[O-]`, the concentration for total growth inhibition (TGI) was over 100 µM.
Same read-out and setting: as for `C=CCN1C(=O)/C(=C/c2ccco2)N=C1SC/C=C/C`, the figure is over 100 µM; as for `CN(C)CC/C(=N\Nc1ccc([N+](=O)[O-])cc1)c1ccccc1`, 27.1 µM; as for `Clc1ccc(C2SCc3nc4ccccc4n32)c(Cl)c1` (centres undefined), 32.1 µM.

In the next assay the test system is PC-3 prostate. Nature of the assay: DTP human tumour cell line panel, 48 h.
`C=CCN1C(=O)/C(=C/c2ccco2)N=C1SC/C=C/C` returned a concentration for total growth inhibition (TGI) of over 100 µM.

Another assay deals with RPMI-8226 leukemia. Nature of the assay: DTP human tumour cell line panel, 48 h.
`CCOc1ccc2c(c1)[n+]([O-])c(-c1ccc(Cl)cc1)c(N)[n+]2[O-]` showed a total growth inhibition concentration (TGI) of over 100 µM.
On the same count and under the same terms, to `C=CCN1C(=O)/C(=C/c2ccco2)N=C1SC/C=C/C` belongs 76.6 µM; to `CN(C)CC/C(=N\Nc1ccc([N+](=O)[O-])cc1)c1ccccc1`, 30.6 µM; to `Clc1ccc(C2SCc3nc4ccccc4n32)c(Cl)c1` (centres undefined), 41.1 µM.

Another assay has as its system RXF 393 renal. Nature of the assay: DTP human tumour cell line panel, 48 h.
`C=CCN1C(=O)/C(=C/c2ccco2)N=C1SC/C=C/C` gave a concentration for total growth inhibition (TGI) of 96.1 µM.
Still for that read-out and setting: to `CN(C)CC/C(=N\Nc1ccc([N+](=O)[O-])cc1)c1ccccc1` belongs 17.1 µM; to `Clc1ccc(C2SCc3nc4ccccc4n32)c(Cl)c1` (centres undefined), 29.6 µM.

Another assay relates to SF-268 CNS. Nature of the assay: DTP human tumour cell line panel, 48 h.
Compound `CCOc1ccc2c(c1)[n+]([O-])c(-c1ccc(Cl)cc1)c(N)[n+]2[O-]` yielded a concentration for total growth inhibition (TGI) of over 100 µM.
Turning to `C=CCN1C(=O)/C(=C/c2ccco2)N=C1SC/C=C/C`, the TGI is over 100 µM.
Still for that read-out and setting: to `CN(C)CC/C(=N\Nc1ccc([N+](=O)[O-])cc1)c1ccccc1` belongs 27.4 µM; to `Clc1ccc(C2SCc3nc4ccccc4n32)c(Cl)c1` (centres undefined), 31.1 µM.

The subject of the next assay is SF-295 CNS. Nature of the assay: DTP human tumour cell line panel, 48 h.
Take `CCOc1ccc2c(c1)[n+]([O-])c(-c1ccc(Cl)cc1)c(N)[n+]2[O-]`: the TGI was over 100 µM.
Still for that read-out and setting: to `C=CCN1C(=O)/C(=C/c2ccco2)N=C1SC/C=C/C` belongs over 100 µM; to `CN(C)CC/C(=N\Nc1ccc([N+](=O)[O-])cc1)c1ccccc1`, 23.6 µM; to `Clc1ccc(C2SCc3nc4ccccc4n32)c(Cl)c1` (centres undefined), 21.1 µM.

The next assay concerns SF-539 CNS. Nature of the assay: DTP human tumour cell line panel, 48 h.
As to `CCOc1ccc2c(c1)[n+]([O-])c(-c1ccc(Cl)cc1)c(N)[n+]2[O-]`, the total growth inhibition concentration (TGI) is over 100 µM.
On the same count and under the same terms, to `C=CCN1C(=O)/C(=C/c2ccco2)N=C1SC/C=C/C` belongs over 100 µM; to `CN(C)CC/C(=N\Nc1ccc([N+](=O)[O-])cc1)c1ccccc1`, 20.3 µM; to `Clc1ccc(C2SCc3nc4ccccc4n32)c(Cl)c1` (centres undefined), 31.4 µM.

The subject of a further assay is SK-MEL-2 melanoma. Nature of the assay: DTP human tumour cell line panel, 48 h.
In turn, `CCOc1ccc2c(c1)[n+]([O-])c(-c1ccc(Cl)cc1)c(N)[n+]2[O-]` displayed a TGI of over 100 µM.
The same measure, in the same setting: to `C=CCN1C(=O)/C(=C/c2ccco2)N=C1SC/C=C/C` belongs 86.4 µM; to `CN(C)CC/C(=N\Nc1ccc([N+](=O)[O-])cc1)c1ccccc1`, 28.2 µM.
Still for that read-out and setting: to `Clc1ccc(C2SCc3nc4ccccc4n32)c(Cl)c1` (centres undefined) belongs 33.8 µM.
